Assay results reported in PubChem BioAssay AID192 (DTP/NCI, 2004).
Where “and” joins values, the source holds several entries; their conditions need not be identical. Equal values may be shown once. Inconclusive results and toxic doses are left out.

System: BDF1 mice, B16 melanoma ip, median survival T/C
Experiment: NCI In Vivo Anticancer Drug Screen. Data for tumor model B16 Melanoma (intraperitoneal) in B6D2F1 (BDF1) mice
Conditions: endpoint: median survival time, higher = longer survival
In short: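 Mice with transplantable tumors; drug vs vehicle groups; endpoint survival or tumor size; value = T/C.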

[1] = dose: 2.5 mg/kg/injection, schedule: Q01DX009 (ip), vehicle: saline with Tween-80
[2] = dose: 5.0 mg/kg/injection, schedule: Q01DX009 (ip), vehicle: saline with Tween-80
[3] = dose: 8.0 mg/kg/injection, schedule: Q01DX009 (ip), vehicle: saline with Tween-80
[4] = dose: 12.5 mg/kg/injection, schedule: Q01DX009 (ip), vehicle: saline
[5] = dose: 3.12 mg/kg/injection, schedule: Q01DX009 (ip), vehicle: saline
[6] = dose: 6.25 mg/kg/injection, schedule: Q01DX009 (ip), vehicle: saline
[7] = dose: 100.0 mg/kg/injection, schedule: Q01DX009 (ip), vehicle: Klucel (hydroxypropylcellulose) (HPC)
[8] = dose: 200.0 mg/kg/injection, schedule: Q01DX009 (ip), vehicle: Klucel (hydroxypropylcellulose) (HPC)
[9] = dose: 12.5 mg/kg/injection, schedule: Q01DX009 (ip), vehicle: saline with Tween-80
[10] = dose: 25.0 mg/kg/injection, schedule: Q01DX009 (ip), vehicle: saline with Tween-80
[11] = dose: 50.0 mg/kg/injection, schedule: Q01DX009 (ip), vehicle: saline with Tween-80
[12] = dose: 100.0 mg/kg/injection, schedule: Q01DX009 (ip), vehicle: saline with Tween-80
[13] = dose: 200.0 mg/kg/injection, schedule: Q01DX009 (ip), vehicle: saline with Tween-80
[14] = dose: 25.0 mg/kg/injection, schedule: Q01DX009 (ip), vehicle: saline
[15] = dose: 400.0 mg/kg/injection, schedule: Q01DX009 (ip), vehicle: saline with Tween-80
[16] = dose: 50.0 mg/kg/injection, schedule: Q01DX009 (ip), vehicle: Klucel (hydroxypropylcellulose) (HPC)
[17] = dose: 100.0 mg/kg/injection, schedule: Q01DX009 (ip), vehicle: saline
[18] = dose: 200.0 mg/kg/injection, schedule: Q01DX009 (ip), vehicle: saline
[19] = dose: 400.0 mg/kg/injection, schedule: Q01DX009 (ip), vehicle: saline
[20] = dose: 400.0 mg/kg/injection, schedule: Q01DX009 (ip), vehicle: Klucel (hydroxypropylcellulose) (HPC)

SMILES: COc1ccc2c(Nc3ccc(NS(C)(=O)=O)cc3)c3ccccc3nc2c1
- T/C (dose: 1.87 mg/kg/injection, schedule: Q01DX009 (ip), vehicle: saline with Tween-80): 163 % of control
- T/C [1]: 150 % of control
- T/C (dose: 3.75 mg/kg/injection, schedule: Q01DX009 (ip), vehicle: saline with Tween-80): 163 % of control
- T/C [2]: 161 % of control
- T/C (dose: 5.3 mg/kg/injection, schedule: Q01DX009 (ip), vehicle: saline with Tween-80): 188 % of control
- T/C (dose: 7.5 mg/kg/injection, schedule: Q01DX009 (ip), vehicle: saline with Tween-80): 193 % of control
- T/C [3]: 188 % of control
- T/C (dose: 12.0 mg/kg/injection, schedule: Q01DX009 (ip), vehicle: saline with Tween-80): 188 % of control
- T/C [4]: 172 % of control
- T/C (dose: 50.0 mg/kg/injection, schedule: Q01DX001 (ip), vehicle: saline sonified): 175 % of control
- T/C (dose: 100.0 mg/kg/injection, schedule: Q01DX001 (ip), vehicle: saline sonified): 194 % of control

SMILES: C=CCN(CC=C)CCN1CCN(CCCN2c3ccccc3Sc3ccc(C(F)(F)F)cc32)CC1
- T/C [5]: 100 % of control
- T/C [6]: 107 % of control
- T/C [4]: 97 % of control

SMILES: CC1Cc2c(Cl)cc(C(=O)NC(Cc3ccccc3)C(=O)O)c(O)c2C(=O)O1 (stereo unspecified)
- T/C (dose: 0.12 mg/kg/injection, schedule: Q01DX009 (ip), vehicle: saline with Tween-80): 112 % of control
- T/C (dose: 0.25 mg/kg/injection, schedule: Q01DX009 (ip), vehicle: saline with Tween-80): 119 % of control
- T/C (dose: 0.5 mg/kg/injection, schedule: Q01DX009 (ip), vehicle: saline with Tween-80): 114 % of control

SMILES: Cc1cnc2c(=N)n(C(=O)C(F)(F)F)n(C)c2n1
- T/C [7]: 90 % of control
- T/C [8]: 94 % of control

SMILES: ClC1CC[N-]CC1.ClC1CC[N-]CC1.O=C(O)CC(=O)O.[Pt+2]
- T/C [9]: 96 % of control
- T/C [10]: 95 % of control
- T/C [11]: 96 % of control
- T/C [12]: 95 % of control
- T/C [13]: 104 % of control

SMILES: C=CC(=O)O
- T/C (dose: 3.13 mg/kg/injection, schedule: Q01DX009 (ip), vehicle: saline): 112 % of control
- T/C [6]: 114 % of control
- T/C [4]: 114 % of control

SMILES: C[CH2][Sn]([CH2]C)([O]S(=O)(=O)CC12CCC(CC1=O)C2(C)C)[O]S(=O)(=O)CC12CCC(CC1=O)C2(C)C
- T/C (dose: 1.56 mg/kg/injection, schedule: Q01DX009 (ip), vehicle: saline): 100 % of control
- T/C [5]: 108 % of control
- T/C [6]: 115 % of control
- T/C [4]: 100 % of control
- T/C [14]: 96 % of control

SMILES: CS(=O)(=O)Nc1ccc(Nc2c3ccccc3nc3cc(Cl)ccc23)cc1
- T/C (dose: 3.0 mg/kg/injection, schedule: Q01DX009 (ip), vehicle: saline with Tween-80): 152 % of control
- T/C (dose: 37.5 mg/kg/injection, schedule: Q01DX001 (ip), vehicle: saline sonified): 169 % of control
- T/C (dose: 75.0 mg/kg/injection, schedule: Q01DX001 (ip), vehicle: saline sonified): 152 % of control

SMILES: O=C(NC1CCCCC1)OCc1c(COC(=O)NC2CCCCC2)c(-c2ccc(Cl)c(Cl)c2)n2c1CCC2
- T/C [9]: 169 % of control
- T/C [10]: 214 % of control
- T/C (dose: 25.0 mg/kg/injection, schedule: Q01DX009 (oral), vehicle: saline with Tween-80): 107 % of control
- T/C [11]: 290 % of control
- T/C (dose: 50.0 mg/kg/injection, schedule: Q01DX009 (oral), vehicle: saline with Tween-80): 102 % of control
- T/C [12]: 304 % of control
- T/C (dose: 100.0 mg/kg/injection, schedule: Q01DX009 (oral), vehicle: saline with Tween-80): 106 % of control
- T/C [13]: 153 % of control
- T/C (dose: 200.0 mg/kg/injection, schedule: Q01DX009 (oral), vehicle: saline with Tween-80): 107 % of control
- T/C [15]: 91 % of control
- T/C (dose: 400.0 mg/kg/injection, schedule: Q01DX009 (oral), vehicle: saline with Tween-80): 106 % of control
- T/C (dose: 800.0 mg/kg/injection, schedule: Q01DX009 (oral), vehicle: saline with Tween-80): 102 % of control

SMILES: CC1(CCl)OCCO1
- T/C [16]: 96 % of control
- T/C [7]: 100 % of control
- T/C [8]: 100 % of control

SMILES: Cn1c[n+](C)cc1C(=O)[O-]
- T/C [17]: 115 % of control
- T/C [18]: 115 % of control
- T/C [19]: 109 % of control

SMILES: CCOC12c3cc(OC)ccc3N(S(=O)(=O)c3ccc(C)cc3)CC1C2(Br)Br (stereo unspecified)
- T/C [16]: 103 % of control
- T/C [7]: 93 % of control
- T/C [8]: 89 % of control

SMILES: CCN1C(=O)NC(=O)/C(=C/N(CCO)CCO)C1=O
- T/C [7]: 111 % of control
- T/C [8]: 107 % of control
- T/C [20]: 96 % of control

SMILES: CNC(=S)N(C1CCCCC1)C1CCCCC1
- T/C [11]: 101 % of control
- T/C [12]: 95 % of control
- T/C [13]: 98 % of control

SMILES: C[Si](C)(C)c1c(F)c(F)cc(F)c1F
- T/C (dose: 100.0 mg/kg/injection, schedule: Q04DX003 (ip), vehicle: Klucel (hydroxypropylcellulose) (HPC)): 98 % of control
- T/C (dose: 200.0 mg/kg/injection, schedule: Q04DX003 (ip), vehicle: Klucel (hydroxypropylcellulose) (HPC)): 97 % of control
- T/C (dose: 400.0 mg/kg/injection, schedule: Q04DX003 (ip), vehicle: Klucel (hydroxypropylcellulose) (HPC)): 97 % of control

SMILES: Cc1cc(C(C)(CC(C)C)c2ccc(O)c(C)c2)ccc1O
- T/C [10]: 107 % of control
- T/C [11]: 94 % of control

SMILES: Clc1nc2ccccc2nc1CI
- T/C (dose: 0.04 mg/kg/injection, schedule: Q01DX009 (ip), vehicle: saline with Tween-80): 97 % of control
- T/C (dose: 0.08 mg/kg/injection, schedule: Q01DX009 (ip), vehicle: saline with Tween-80): 97 % of control
- T/C (dose: 0.15 mg/kg/injection, schedule: Q01DX009 (ip), vehicle: saline with Tween-80): 97 % of control
- T/C (dose: 0.3 mg/kg/injection, schedule: Q01DX009 (ip), vehicle: saline with Tween-80): 92 % of control
- T/C (dose: 0.31 mg/kg/injection, schedule: Q01DX009 (ip), vehicle: saline with Tween-80): 94 % of control
- T/C (dose: 0.62 mg/kg/injection, schedule: Q01DX009 (ip), vehicle: saline with Tween-80): 91 % of control
- T/C (dose: 1.25 mg/kg/injection, schedule: Q01DX009 (ip), vehicle: saline with Tween-80): 100 % of control
- T/C [1]: 97 % of control
- T/C [2]: 88 % of control

SMILES: C/C(=C\C(=O)Nc1ncn[nH]1)Nc1ncn[nH]1
- T/C [16]: 106 % of control
- T/C [7]: 102 % of control
- T/C [8]: 90 % of control
- T/C [20]: 101 % of control

SMILES: COc1cc(C(=O)NCCS(=O)(=O)O)cc(OC)c1OC
- T/C [17]: 97 % of control
- T/C [18]: 111 % of control
- T/C [19]: 103 % of control

SMILES: CN1CN(C)CN(C)C1
- T/C [14]: 118 % of control

SMILES: O=S(=O)(O)O.[W]
- T/C (dose: 0.75 mg/kg/injection, schedule: Q01DX009 (ip), vehicle: saline): 87 % of control and 100 % of control
- T/C (dose: 1.5 mg/kg/injection, schedule: Q01DX009 (ip), vehicle: saline): 91 % of control and 101 % of control

SMILES: C/C=C/C1=CC(=O)C(O)C1O (stereo unspecified)
- T/C (dose: 25.0 mg/kg/injection, schedule: Q01DX009 (ip), vehicle: water): 92 % of control
- T/C (dose: 50.0 mg/kg/injection, schedule: Q01DX009 (ip), vehicle: water): 117 % of control
- T/C (dose: 100.0 mg/kg/injection, schedule: Q01DX009 (ip), vehicle: water): 122 % of control
- T/C (dose: 200.0 mg/kg/injection, schedule: Q01DX009 (ip), vehicle: water): 122 % of control

SMILES: COc1c2occc2cc2ccc(=O)oc12
- T/C [3]: 104 % of control
- T/C (dose: 16.0 mg/kg/injection, schedule: Q01DX009 (ip), vehicle: saline with Tween-80): 115 % of control
- T/C [10]: 103 % of control
- T/C (dose: 32.0 mg/kg/injection, schedule: Q01DX009 (ip), vehicle: saline with Tween-80): 95 % of control
- T/C (dose: 64.0 mg/kg/injection, schedule: Q01DX009 (ip), vehicle: saline with Tween-80): 114 % of control
- T/C [12]: 95 % of control
- T/C (dose: 128.0 mg/kg/injection, schedule: Q01DX009 (ip), vehicle: saline with Tween-80): 93 % of control

SMILES: COc1cc(C2C(C(=O)OC/C=C/c3ccc4c(c3)OCO4)C(c3cc(OC)c(OC)c(OC)c3)C2C(=O)OC/C=C/c2ccc3c(c2)OCO3)cc(OC)c1OC (stereo unspecified)
- T/C [11]: 98 % of control
- T/C [12]: 92 % of control
- T/C [13]: 88 % of control
- T/C [15]: 91 % of control
